Test results: patent US20230265116A1, “DEGRADATION OF (EGFR) BY CONJUGATION OF EGFR INHIBITORS WITH E3 LIGASE LIGAND AND METHODS OF USE” (BEIGENE, LTD., priority 2020, published 2023)
Like-named read-outs stand apart in the source and are kept apart here.

Tests used:
[1] = test system: EGFR Del19/T790M/C797S (H1975-clone #28); assay: EGFR degradation HTRF assay, H1975-clone #28 DTC cells; assay type: cell-based
How it was run: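 Engineered H1975 lines (lentiviral mutant EGFR, endogenous EGFR knocked out, single-clone verified); 16h compound, 37° C., 5% CO2, 0.2% DMSO; 8-point 5-fold series from 10 uM final. HTRF lysate read; % degradation vs DMSO, four-parameter fit → DC50, Dmax.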

[2] = target: T1, EGFR L858R/T790M/C797S (BaF3-LTC cells) (Homo sapiens, UniProt P00533, C797S/L858R/T790M); assay: EGFR degradation HTRF assay, BaF3-LTC cells; assay type: cell-based
T1 construct: expressed in transfected cells; host or cells: BaF3
T1 sequence (P00533 25-1210 T790M/C797S/L858R): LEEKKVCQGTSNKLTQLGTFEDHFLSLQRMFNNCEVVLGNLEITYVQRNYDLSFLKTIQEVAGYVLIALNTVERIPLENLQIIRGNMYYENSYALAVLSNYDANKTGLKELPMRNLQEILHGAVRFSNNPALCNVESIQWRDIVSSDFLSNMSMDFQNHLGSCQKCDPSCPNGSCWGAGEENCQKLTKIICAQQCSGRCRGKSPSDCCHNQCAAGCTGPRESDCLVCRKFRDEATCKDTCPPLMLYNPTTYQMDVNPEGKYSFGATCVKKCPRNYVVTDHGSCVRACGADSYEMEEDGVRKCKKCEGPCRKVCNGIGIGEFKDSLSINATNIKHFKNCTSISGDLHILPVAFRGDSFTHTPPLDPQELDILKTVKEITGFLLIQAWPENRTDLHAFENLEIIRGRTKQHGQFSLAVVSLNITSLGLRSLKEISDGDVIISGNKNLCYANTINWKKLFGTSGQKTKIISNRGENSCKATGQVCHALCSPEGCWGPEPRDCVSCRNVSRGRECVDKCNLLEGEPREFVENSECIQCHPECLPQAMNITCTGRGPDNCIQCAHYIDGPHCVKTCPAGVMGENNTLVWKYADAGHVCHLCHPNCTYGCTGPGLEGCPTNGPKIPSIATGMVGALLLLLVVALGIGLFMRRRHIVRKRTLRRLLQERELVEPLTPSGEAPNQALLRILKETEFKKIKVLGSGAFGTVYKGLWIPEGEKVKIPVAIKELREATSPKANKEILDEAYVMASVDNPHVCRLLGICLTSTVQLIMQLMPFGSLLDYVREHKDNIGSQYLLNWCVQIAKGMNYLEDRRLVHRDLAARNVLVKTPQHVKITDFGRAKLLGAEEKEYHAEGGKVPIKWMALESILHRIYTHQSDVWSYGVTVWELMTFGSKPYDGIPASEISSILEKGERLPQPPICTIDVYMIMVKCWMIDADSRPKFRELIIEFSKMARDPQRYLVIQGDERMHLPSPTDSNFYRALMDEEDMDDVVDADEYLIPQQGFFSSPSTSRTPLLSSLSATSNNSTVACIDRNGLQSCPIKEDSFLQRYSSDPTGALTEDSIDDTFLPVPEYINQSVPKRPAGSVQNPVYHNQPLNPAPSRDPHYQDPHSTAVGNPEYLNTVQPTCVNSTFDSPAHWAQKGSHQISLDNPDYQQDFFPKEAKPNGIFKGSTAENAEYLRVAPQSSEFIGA
How it was run: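 EGFR remaining after a 16 h, 37 °C exposure (8 doses, 5-fold steps from 10 uM final, 0.2% DMSO) was quantified by HTRF antibodies in cell lysate. Percent inhibition relative to DMSO control was fitted by four-parameter logistic to give DC50; Dmax denotes maximal degradation.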

[3] = H1975 # 28 DTC cells; EGFR degradation, IC50 (DC50) from curve fit; read-out: DC50(nM) H1975 # 28 DTC
[4] = H1975 # 28 DTC cells; maximum percentage of inhibition (degradation)
[5] = BaF3-LTC cells; EGFR degradation, IC50 (DC50) from curve fit; read-out: DC50(nM) BaF3-LTC
[6] = BaF3-LTC cells; maximum percentage of inhibition (degradation); read-out: Dmax (%) BaF3-LTC
[7] = read-out: DC50(nM) H1975 # 28 DTC; H1975 # 28 DTC cells; EGFR degradation, IC50 (DC50) from curve fit
[8] = BaF3-LTC cells; maximum percentage of inhibition (degradation)
[9] = read-out: DC50(nM) BaF3-LTC; BaF3-LTC cells; EGFR degradation, IC50 (DC50) from curve fit
[10] = read-out: Dmax (%) BaF3-LTC, BaF3-LTC cells; maximum percentage of inhibition (degradation)

DC50 [1, 3] [nM]	DC50 [2, 5] [nM]	Dmax [2, 6] [%]	SMILES	Dmax (%) H1975 # 28 DTC [1, 4] [%]	DC50 [1, 7] [nM]	Dmax (%) BaF3-LTC [2, 8] [%]	DC50 [2, 9] [nM]	Dmax [2, 10] [%]
0.764	18.5	86.1	CCOc1cc(N2CCC(N3CCN(CCN(C)c4cccc5c4oc(=O)n5C4CCC(=O)NC4=O)CC3)CC2)c(CC)cc1Nc1ncc(Br)c(Nc2cc(F)c3nc(CC)ccc3c2P(C)(C)=O)n1 (stereo not shown) [Example 604, 3-(7-((2-(4-(1-(4-((5-bromo-4-((5-(dimethylphosphoryl)-2-ethyl-8-fluoroquinolin-6-yl)amino)pyrimidin-2-yl)amino)-5-ethoxy-2-ethylphenyl)piperidin-4-yl)piperazin-1-yl)ethyl)(methyl)amino)-2-oxobenzo[d]oxazol-3(2H)-yl)piperidine-2,6-dione]	69.1	–	–	–	–
1.07	14.2	86.8	CCc1cc(Nc2ncc(Br)c(Nc3ccc4nc(C)ccc4c3P(C)(C)=O)n2)c(OC2CC2)cc1N1CCC(N2CCN(CCCc3cc(F)cc4c3oc(=O)n4C3CCC(=O)NC3=O)CC2)CC1 (stereo not shown) [Example 607, 3-(7-(3-(4-(1-(4-((5-bromo-4-((5-(dimethylphosphoryl)-2-methylquinolin-6-yl)amino)pyrimidin-2-yl)amino)-5-cyclopropoxy-2-ethylphenyl)piperidin-4-yl)piperazin-1-yl)propyl)-5-fluoro-2-oxobenzo[d]oxazol-3(2H)-yl)piperidine-2,6-dione]	78.76	–	–	–	–
–	–	–	CCOc1cc(N2CCC(N3CCN(CCc4cc5oc(=O)n(C6CCC(=O)NC6=O)c5cc4F)CC3)CC2)c(CC)cc1Nc1ncc(Br)c(Nc2ccc3nc(CC)ncc3c2P(C)(C)=O)n1 (stereo not shown) [Example 609, 3-(6-(2-(4-(1-(4-((5-bromo-4-((5-(dimethylphosphoryl)-2-ethylquinazolin-6-yl)amino)pyrimidin-2-yl)amino)-5-ethoxy-2-ethylphenyl)piperidin-4-yl)piperazin-1-yl)ethyl)-5-fluoro-2-oxobenzo[d]oxazol-3(2H)-yl)piperidine-2,6-dione]	74.7	3.07	89.57	11.5	–
5.69	83.4	–	CCOc1cc(N2CCC(N3CCN(C[C@H]4CCN(c5cccc6c5oc(=O)n6C5CCC(=O)NC5=O)C4)CC3)CC2)c(CC)cc1Nc1ncc(Br)c(Nc2ccc3c(=O)n(CC)ncc3c2P(C)(C)=O)n1 (stereo partly drawn) [Example 611, 3-(7-((R)-3-((4-(1-(4-((5-bromo-4-((5-(dimethylphosphoryl)-2-ethyl-1-oxo-1,2-dihydrophthalazin-6-yl)amino)pyrimidin-2-yl)amino)-5-ethoxy-2-ethylphenyl)piperidin-4-yl)piperazin-1-yl)methyl)pyrrolidin-1-yl)-2-oxobenzo[d]oxazol-3(2H)-yl)piperidine-2,6-dione]	70.37	–	86.27	–	–
–	–	–	CCOc1cc(N2CCC(N3CCN(CCC4CCN(c5ccc6c(oc(=O)n6C6CCC(=O)NC6=O)c5F)CC4)CC3)CC2)c(CC)cc1Nc1ncc(Br)c(Nc2ccc3nc(CC)ncc3c2P(C)(C)=O)n1 (stereo not shown) [Example 612, 3-(6-(4-(2-(4-(1-(4-((5-bromo-4-((5-(dimethylphosphoryl)-2-ethylquinazolin-6-yl)amino)pyrimidin-2-yl)amino)-5-ethoxy-2-ethylphenyl)piperidin-4-yl)piperazin-1-yl)ethyl)piperidin-1-yl)-7-fluoro-2-oxobenzo[d]oxazol-3(2H)-yl)piperidine-2,6-dione]	72.14	0.656	–	7.68	93.2
3.55	17.3	88.6	CCOc1cc(N2CCC(N3CCN(CCc4c(F)cc5c(oc(=O)n5C5CCC(=O)NC5=O)c4C)CC3)CC2)c(CC)cc1Nc1ncc(Br)c(Nc2ccc3c(=O)n(CC)ncc3c2P(C)(C)=O)n1 (stereo not shown) [Example 613, 3-(6-(2-(4-(1-(4-((5-bromo-4-((5-(dimethylphosphoryl)-2-ethyl-1-oxo-1,2-dihydrophthalazin-6-yl)amino)pyrimidin-2-yl)amino)-5-ethoxy-2-ethylphenyl)piperidin-4-yl)piperazin-1-yl)ethyl)-5-fluoro-7-methyl-2-oxobenzo[d]oxazol-3(2H)-yl)piperidine-2,6-dione]	71.47	–	–	–	–
2.61	23.8	–	CCOc1cc(N2CCC(N3CCN(CCc4c(F)ccc5c4oc(=O)n5C4CCC(=O)NC4=O)CC3)CC2)c(CC)cc1Nc1ncc(Br)c(Nc2cc(F)c3nc(CC)ccc3c2P(C)(C)=O)n1 (stereo not shown) [Example 614, 3-(7-(2-(4-(1-(4-((5-bromo-4-((5-(dimethylphosphoryl)-2-ethyl-8-fluoroquinolin-6-yl)amino)pyrimidin-2-yl)amino)-5-ethoxy-2-ethylphenyl)piperidin-4-yl)piperazin-1-yl)ethyl)-6-fluoro-2-oxobenzo[d]oxazol-3(2H)-yl)piperidine-2,6-dione]	74	–	80.74	–	–
–	–	–	CCOc1cc(N2CCC(N3CCN(CCCc4cccc5c4oc(=O)n5C4CCC(=O)NC4=O)CC3)CC2)c(CC)cc1Nc1ncc(Br)c(Nc2ccc3nc(CC)ncc3c2P(C)(C)=O)n1 (stereo not shown) [Example 615, 3-(7-(3-(4-(1-(4-((5-bromo-4-((5-(dimethylphosphoryl)-2-ethylquinazolin-6-yl)amino)pyrimidin-2-yl)amino)-5-ethoxy-2-ethylphenyl)piperidin-4-yl)piperazin-1-yl)propyl)-2-oxobenzo[d]oxazol-3(2H)-yl)piperidine-2,6-dione]	72.36	0.921	–	7.91	91
5.75	43.1	83.8	CCOc1cc(N2CCC(N3CCN(CCc4cc5oc(=O)n(C6CCC(=O)NC6=O)c5cc4C(F)(F)F)CC3)CC2)c(CC)cc1Nc1ncc(Br)c(Nc2ccc3nc(CC)ccc3c2P(C)(C)=O)n1 (stereo not shown) [Example 616, 3-(6-(2-(4-(1-(4-((5-bromo-4-((5-(dimethylphosphoryl)-2-ethylquinolin-6-yl)amino)pyrimidin-2-yl)amino)-5-ethoxy-2-ethylphenyl)piperidin-4-yl)piperazin-1-yl)ethyl)-2-oxo-5-(trifluoromethyl)benzo[d]oxazol-3(2H)-yl)piperidine-2,6-dione]	70.93	–	–	–	–
–	–	–	CCOc1cc(N2CCC(N3CCN(CCCc4cc(F)cc5c4oc(=O)n5C4CCC(=O)NC4=O)CC3)CC2)c(CC)cc1Nc1ncc(Br)c(Nc2ccc3nc(CC)ncc3c2P(C)(C)=O)n1 (stereo not shown) [Example 617, 3-(7-(3-(4-(1-(4-((5-bromo-4-((5-(dimethylphosphoryl)-2-ethylquinazolin-6-yl)amino)pyrimidin-2-yl)amino)-5-ethoxy-2-ethylphenyl)piperidin-4-yl)piperazin-1-yl)propyl)-5-fluoro-2-oxobenzo[d]oxazol-3(2H)-yl)piperidine-2,6-dione]	74.31	1.15	91.31	5.77	–
2.14	53.2	74.2	CCOc1cc(N2CCC(N3CCN(CCc4cc(OC)cc5c4oc(=O)n5C4CCC(=O)NC4=O)CC3)CC2)c(CC)cc1Nc1ncc(Br)c(Nc2ccc3nc(CC)ccc3c2P(C)(C)=O)n1 (stereo not shown) [Example 618, 3-(7-(2-(4-(1-(4-((5-bromo-4-((5-(dimethylphosphoryl)-2-ethylquinolin-6-yl)amino)pyrimidin-2-yl)amino)-5-ethoxy-2-ethylphenyl)piperidin-4-yl)piperazin-1-yl)ethyl)-5-methoxy-2-oxobenzo[d]oxazol-3(2H)-yl)piperidine-2,6-dione]	74.88	–	–	–	–
0.91	11.2	92.1	CCOc1cc(N2CCC(N3CCN(CCOCCc4cccc5c4oc(=O)n5C4CCC(=O)NC4=O)CC3)CC2)c(CC)cc1Nc1ncc(Br)c(Nc2ccc3nc(CC)ccc3c2P(C)(C)=O)n1 (stereo not shown) [Example 619, 3-(7-(2-(2-(4-(1-(4-((5-bromo-4-((5-(dimethylphosphoryl)-2-ethylquinolin-6-yl)amino)pyrimidin-2-yl)amino)-5-ethoxy-2-ethylphenyl)piperidin-4-yl)piperazin-1-yl)ethoxy)ethyl)-2-oxobenzod[d]oxazol-3(2H)-yl)piperidine-2,6-dione]	62.88	–	–	–	–
2.04	8.28	93.8	CCOc1cc(N2CCC(N3CCN(CCCc4cc(F)cc5c4oc(=O)n5C4CCC(=O)NC4=O)CC3)CC2)c(CC)cc1Nc1ncc(Br)c(Nc2cc(F)c3nc(CC)ccc3c2P(C)(C)=O)n1 (stereo not shown) [Example 620, 3-(7-(3-(4-(1-(4-((5-bromo-4-((5-(dimethylphosphoryl)-2-ethyl-8-fluoroquinolin-6-yl)amino)pyrimidin-2-yl)amino)-5-ethoxy-2-ethylphenyl)piperidin-4-yl)piperazin-1-yl)propyl)-5-fluoro-2-oxobenzo[d]oxazol-3(2H)-yl)piperidine-2,6-dione]	78.78	–	–	–	–
